Where two headings read alike, the source gives them in different places.
Molecular target: T1, viral kinase pUL-97 (Human cytomegalovirus, UniProt P16788)
T1 construct: The pUL-97 gene was cloned into a baculovirus vector; GST (glutathione S-transferase) (N); made in house; host or cells: Sf9 insect cells, baculovirus
Test: UL97 kinase assay on Immobilon plate
Format: biochemical
Conditions: inhibition of UL 97 kinase activity, read-out: Activity Class [A, B, C]
Description: UL97 Kinase-Assay on Immobilon Plate
The effect of pyrazine derivatives of this invention was tested on the activity of the viral kinase pUL-97. This kinase is derived from human cytomegalovirus (HCMV) (M. Marschall et al., Journal of General Virology, 2001, 82, 1439-1450). The pUL-97 gene was cloned into a baculovirus vector in order to produce GST (glutathione S-transferase) fusion protein. Insect cells (Sf9) were infected and GST-UL-97 purified via glutathione affinity columns according to standard procedures.
The pUL-97 kinase reaction was performed as described (M. Marschall et al., Journal of General Virology, 2001, 82, 1439-1450). Briefly, 10 μl Assay buffer (3 μM ATP, 60 μg/ml myelin basic protein (MBP) as substrate), 1.0 μCi γ-[^33P]ATP and 10 μl Basic buffer (20 mM Tris-HCl pH7.5, 0.5 mM MnCl2, 1 mM DTT (Dithiothreitol)) were given to the test tube before adding various concentrations of pyrazine derivatives. The reaction was started by adding 0.2 μl pUL-97 kinase, purified from infected Sf9-insect cells as described above. The total volume was adjusted with Basic buffer to a final volume of 30 μl. The reaction mix was incubated for 1 hr at 30° C. For negative control, 10 μl 0.1M EDTA (Ethylene Diamine tetraacetate) was added to reaction mix before addition of pUL-97 protein kinase. The reaction was stopped by addition of 10 μl 0.1 M EDTA.
Measuring Incorporation of Radioactivity:
The Immobilon plate (Millipore) was rinsed with 50 μl methanol/well. Following addition of 100 μl 0.1 M EDTA, 20 μl of each kinase reaction mix was added to one well of the Immobilon plate. Each well was washed 4× with 250 μl 0.75% phosphoric acid and 1× with 50 μl methanol. After addition of 50 μl scintillation cocktail (Roth, Germany) per well incorporation of radioactivity was measured using a Betareader (Wallac) and enzymatic activity calculated.

[1] = class by IC50 / % inhibition at 10 or 100 μM
[2] = class by IC50 / % inhibition at 10 μM or 100 μM

T1 sequence (P16788 whole entry): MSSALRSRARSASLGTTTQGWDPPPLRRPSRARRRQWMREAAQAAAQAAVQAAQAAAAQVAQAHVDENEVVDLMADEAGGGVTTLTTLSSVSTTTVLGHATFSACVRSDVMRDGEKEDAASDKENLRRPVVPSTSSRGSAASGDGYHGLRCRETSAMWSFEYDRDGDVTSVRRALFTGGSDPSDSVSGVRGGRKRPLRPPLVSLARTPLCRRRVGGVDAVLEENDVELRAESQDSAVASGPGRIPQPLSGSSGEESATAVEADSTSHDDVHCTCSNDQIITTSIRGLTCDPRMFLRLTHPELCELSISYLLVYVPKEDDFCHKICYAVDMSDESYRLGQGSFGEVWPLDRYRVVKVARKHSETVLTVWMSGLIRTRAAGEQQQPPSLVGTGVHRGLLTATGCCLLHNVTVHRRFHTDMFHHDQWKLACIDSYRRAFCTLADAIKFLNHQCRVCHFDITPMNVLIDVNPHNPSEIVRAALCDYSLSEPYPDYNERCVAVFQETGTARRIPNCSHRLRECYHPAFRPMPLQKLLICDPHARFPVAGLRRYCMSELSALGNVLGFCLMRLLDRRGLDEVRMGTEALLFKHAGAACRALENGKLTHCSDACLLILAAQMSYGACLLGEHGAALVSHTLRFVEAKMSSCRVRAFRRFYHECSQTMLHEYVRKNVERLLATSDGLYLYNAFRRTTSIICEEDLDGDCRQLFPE

SMILES	IC50 [1] [µM]	IC50 [2] [µM]
N#Cc1ccccc1N1CCN(c2cncc(-c3ccc(F)c(Cl)c3)n2)CC1 [compound 62, 2-[6′-(3-Chloro-4-fluoro-phenyl)-2,3,5,6-tetrahydro-[1,2′]bipyrazinyl-4-yl]-benzonitrile]	1 to 10	–
Cc1cc(C)cc(-c2cncc(N3CCN(c4ccccc4)CC3)n2)c1 [compound 192, 6′-(3,5-Dimethyl-phenyl)-4-phenyl-3,4,5,6-tetrahydro-2H-[1,2′]bipyrazinyl]	10 to 100	–
CCOc1ccc(-c2cncc(N3CCN(c4ccccc4F)CC3)n2)cc1 [compound 127, 6′-(4-Ethoxy-phenyl)-4-(2-fluoro-phenyl)-3,4,5,6-tetrahydro-2H-[1,2′]bipyrazinyl]	10 to 100	–
NC(=O)c1ccc(-c2cncc(N3CCN(c4ccccn4)CC3)n2)cc1 [Comp. 15, 4-(4-Pyridin-2-yl-3,4,5,6-tetrahydro-2H-[1,2′]bipyrazinyl-6′-yl)-benzamide]	< 1	–
Cc1ccc(N2CCN(c3cncc(-c4ccc(C(F)(F)F)cc4)n3)CC2)cc1 [compound 178, 4-p-Tolyl-6′-(4-trifluoromethyl-phenyl)-3,4,5,6-tetrahydro-2H-[1,2′]bipyrazinyl]	1 to 10	–
c1ccc2cc(-c3cncc(N4CCN(CCN5CCCC5)CC4)n3)ccc2c1 [compound 17, 6′-Naphthalen-2-yl-4-(2-pyrrolidin-1-yl-ethyl)-3,4,5,6-tetrahydro-2H-[1,2′]bipyrazinyl]	< 1	–
COc1ccc(N2CCN(c3cncc(-c4ccc(C(N)=O)cc4)n3)CC2)cc1 [compound 290, 4-[4-(4-Methoxy-phenyl)-3,4,5,6-tetrahydro-2H-[1,2′]bipyrazinyl-6′-yl]-benzamide]	–	< 1
COc1ccc(N2CCN(c3cncc(-c4ccc(F)cc4)n3)CC2)cc1 [compound 363, 6′-(4-Fluoro-phenyl)-4-(4-methoxy-phenyl)-3,4,5,6-tetrahydro-2H-[1,2′]bipyrazinyl]	–	1 to 10
CN(C)c1ccc(-c2cncc(N3CCC(c4ccccc4)CC3)n2)cc1 [compound 280, Dimethyl-{4-[6-(4-phenyl-piperidin-1-yl)-pyrazin-2-yl]-phenyl}-amine]	–	1 to 10
CC(=O)c1ccc(-c2cncc(N3CCC(c4ccccc4)CC3)n2)cc1 [compound 362]	–	1 to 10
COc1ccc(N2CCN(c3cncc(-c4ccccc4Oc4ccccc4)n3)CC2)cc1OC [compound 174, 4-(3,4-Dimethoxy-phenyl)-6′-(2-phenoxy-phenyl)-3,4,5,6-tetrahydro-2H-[1,2′]bipyrazinyl]	10 to 100	–
OCc1ccccc1-c1cncc(N2CCN(c3ccc(F)cc3F)CC2)n1 [compound 202, {2-[4-(2,4-Difluoro-phenyl)-3,4,5,6-tetrahydro-2H-[1,2′]bipyrazinyl-6′-yl]-phenyl}-methanol]	–	10 to 100
Brc1ccc(-c2cncc(N3CCN(c4cnccn4)CC3)n2)cc1 [compound 313, 6-(4-Bromo-phenyl)-2′,3′,5′,6′-tetrahydro-[2,1′;4′,2″]terpyrazine]	–	< 1
c1ccc(C2CCN(c3cncc(-c4ccoc4)n3)CC2)cc1 [compound 277, 2-Furan-3-yl-6-(4-phenyl-piperidin-1-yl)-pyrazine]	–	10 to 100
COc1ccccc1N1CCN(c2cncc(-c3ccc(C(N)=O)cc3)n2)CC1 [compound 104, 4-[4-(2-Methoxy-phenyl)-3,4,5,6-tetrahydro-2H-[1,2′]bipyrazinyl-6′-yl]-benzamide]	< 1	–
Cc1ccc(-c2cncc(N3CCN(c4ccc(F)cc4)CC3)n2)cc1 [compound 233, 4-(4-Fluoro-phenyl)-6′-p-tolyl-3,4,5,6-tetrahydro-2H-[1,2′]bipyrazinyl]	–	1 to 10
Cc1ccccc1-c1cncc(N2CCN(c3cccc(Cl)c3)CC2)n1 [compound 82, 4-(3-Chloro-phenyl)-6′-o-tolyl-3,4,5,6-tetrahydro-2H-[1,2′]bipyrazinyl]	10 to 100	–
Cc1ccc(-c2cncc(N3CCN(c4cccc(C(F)(F)F)c4)CC3)n2)cc1 [compound 155, 6′-p-Tolyl-4-(3-trifluoromethyl-phenyl)-3,4,5,6-tetrahydro-2H-[1,2′]bipyrazinyl]	10 to 100	–

SMILES	IC50 [1] [µM]	IC50 [2] [µM]
CSc1ccccc1-c1cncc(N2CCN(c3ccncc3)CC2)n1 [compound 166, 6′-(2-Methylsulfanyl-phenyl)-4-pyridin-4-yl-3,4,5,6-tetrahydro-2H-[1,2′]bipyrazinyl]	10 to 100	–
CC(=O)Nc1cccc(-c2cncc(N3CCN(c4cccc5[nH]ccc45)CC3)n2)c1 [compound 36, N-{3-[4-(1H-Indol-4-yl)-3,4,5,6-tetrahydro-2H-[1,2′]bipyrazinyl-6′-yl]-phenyl}-acetamide]	10 to 100	–
CSc1ccc(-c2cncc(N3CCN(c4cccc(Cl)c4)CC3)n2)cc1 [compound 102, 4-(3-Chloro-phenyl)-6′-(4-methylsulfanyl-phenyl)-3,4,5,6-tetrahydro-2H-[1,2′]bipyrazinyl]	1 to 10	–
CC(=O)c1ccc(N2CCN(c3cncc(-c4ccc(C)cc4)n3)CC2)cc1 [compound 148, 1-[4-(6′-p-Tolyl-2,3,5,6-tetrahydro-[1,2′]bipyrazinyl-4-yl)-phenyl]-ethanone]	1 to 10	–
Cc1cc(C)cc(-c2cncc(N3CCN(c4ccc(F)cc4)CC3)n2)c1 [compound 179, 6′-(3,5-Dimethyl-phenyl)-4-(4-fluoro-phenyl)-3,4,5,6-tetrahydro-2H-[1,2′]bipyrazinyl]	10 to 100	–
Fc1ccc(N2CCN(c3cncc(-c4cc5ccccc5s4)n3)CC2)c(F)c1 [compound 272, 6′-Benzo[b]thiophen-2-yl-4-(2,4-difluoro-phenyl)-3,4,5,6-tetrahydro-2H-[1,2′]bipyrazinyl]	–	1 to 10
c1ccc(C2CCN(c3cncc(-c4cccc5ccccc45)n3)CC2)cc1 [compound 318, 2-Naphthalen-1-yl-6-(4-phenyl-piperidin-1-yl)-pyrazine]	–	10 to 100
OCc1ccc(-c2cncc(N3CCN(c4cccc(Cl)c4)CC3)n2)cc1 [compound 83, {4-[4-(3-Chloro-phenyl)-3,4,5,6-tetrahydro-2H-[1,2′]bipyrazinyl-6′-yl]-phenyl}-methanol]	1 to 10	–
Clc1cccc(-c2cncc(N3CCN(c4ccccn4)CC3)n2)c1 [compound 53, 6′-(3-Chloro-phenyl)-4-pyridin-2-yl-3,4,5,6-tetrahydro-2H-[1,2′]bipyrazinyl]	1 to 10	–
Clc1cccc(N2CCN(c3cncc(-c4ccoc4)n3)CC2)c1 [compound 84, 4-(3-Chloro-phenyl)-6′-furan-3-yl-3,4,5,6-tetrahydro-2H-[1,2′]bipyrazinyl]	1 to 10	–
N#Cc1cccc(-c2cncc(N3CCN(c4ccncc4)CC3)n2)c1 [compound 167, 3-(4-Pyridin-4-yl-3,4,5,6-tetrahydro-2H-[1,2′]bipyrazinyl-6′-yl)-benzonitrile]	1 to 10	–
CC(=O)c1ccc(-c2cncc(N3CCN(c4ccc(C)cc4C)CC3)n2)s1 [compound 289, 1-{5-[4-(2,4-Dimethyl-phenyl)-3,4,5,6-tetrahydro-2H-[1,2′]bipyrazinyl-6′-yl]-thiophen-2-yl}-ethanone]	–	10 to 100
COc1ccc(N2CCN(c3cncc(-c4cccc(C)c4C)n3)CC2)cc1OC [compound 226, 4-(3,4-Dimethoxy-phenyl)-6′-(2,3-dimethyl-phenyl)-3,4,5,6-tetrahydro-2H-[1,2′]bipyrazinyl]	–	10 to 100
COc1ccc(-c2cncc(N3CCN(c4ccc(C(C)=O)cc4)CC3)n2)cc1F [compound 206, 1-{4-[6′-(3-Fluoro-4-methoxy-phenyl)-2,3,5,6-tetrahydro-[1,2′]bipyrazinyl-4-yl]-phenyl}-ethanone]	–	1 to 10
CC(C)(C)c1ccc(-c2cncc(N3CCN(c4cccc(C(F)(F)F)c4)CC3)n2)cc1 [compound 253, 6′-(4-tert-Butyl-phenyl)-4-(3-trifluoromethyl-phenyl)-3,4,5,6-tetrahydro-2H-[1,2′]bipyrazinyl]	–	10 to 100
c1ccc(Oc2ccc(-c3cncc(N4CCN(c5ccccc5)CC4)n3)cc2)cc1 [compound 189, 6′-(4-Phenoxy-phenyl)-4-phenyl-3,4,5,6-tetrahydro-2H-[1,2′]bipyrazinyl]	10 to 100	–
COc1ccc(N2CCN(c3cncc(-c4ccc(C(N)=O)cc4)n3)CC2)cc1OC [compound 20, 4-[4-(3,4-Dimethoxyphenyl)-3,4,5,6-tetrahydro-2H-[1,2′]bipyrazinyl-6′-yl)-benzamide]	< 1	–
COc1cccc(-c2cncc(N3CCN(c4cccc(OC)c4)CC3)n2)c1 [compound 366, 4,6′-Bis-(3-methoxy-phenyl)-3,4,5,6-tetrahydro-2H-[1,2′]bipyrazinyl]	–	1 to 10

Reference: patent US20080194574A1, “Pyrazine Derivatives As Effective Compounds Against Infectious Diseases” (AXXIMA PHARMACEUTICALS AG, priority 2003, published 2008)
